Consider 7 molecules from US8580773B2, “Small-molecule inhibitors of the androgen receptor” (The Regents of the University of California, priority 2008, dated 2013).

One may read the IC50 as the midpoint of a concentration-inhibition curve.

Positions count from the first letter of the chain named. “Also recorded” adds a separate entry of the source. Where a name gives a salt, the structure may show the parent alone.

The subject of data set [1] is prostate. Put plainly: Prostate weight in mice after four weeks of treatment. The format is in vivo. The conditions noted are these: male mice, 5 times per week for four weeks; BiC 100 mg/kg PO, PP 1 mg/kg IP, or the combination. How it is done:
Animals were treated 5 times per week for four weeks. At the end of the study period, animals were sacrificed and prostate tissue weighed. After weighing, the tissue was divided in half for pathological and genetic studies. […] (FIG. 7).

In a further data set the target is T1, human androgen receptor (Homo sapiens, UniProt P10275).
T1 construct: expressed in transfected cells; host or cells: HEK293 and LAPC4 stably expressing C-AR-Y; HEK293 transiently transfected with native AR
T1 sequence (P10275 1-920): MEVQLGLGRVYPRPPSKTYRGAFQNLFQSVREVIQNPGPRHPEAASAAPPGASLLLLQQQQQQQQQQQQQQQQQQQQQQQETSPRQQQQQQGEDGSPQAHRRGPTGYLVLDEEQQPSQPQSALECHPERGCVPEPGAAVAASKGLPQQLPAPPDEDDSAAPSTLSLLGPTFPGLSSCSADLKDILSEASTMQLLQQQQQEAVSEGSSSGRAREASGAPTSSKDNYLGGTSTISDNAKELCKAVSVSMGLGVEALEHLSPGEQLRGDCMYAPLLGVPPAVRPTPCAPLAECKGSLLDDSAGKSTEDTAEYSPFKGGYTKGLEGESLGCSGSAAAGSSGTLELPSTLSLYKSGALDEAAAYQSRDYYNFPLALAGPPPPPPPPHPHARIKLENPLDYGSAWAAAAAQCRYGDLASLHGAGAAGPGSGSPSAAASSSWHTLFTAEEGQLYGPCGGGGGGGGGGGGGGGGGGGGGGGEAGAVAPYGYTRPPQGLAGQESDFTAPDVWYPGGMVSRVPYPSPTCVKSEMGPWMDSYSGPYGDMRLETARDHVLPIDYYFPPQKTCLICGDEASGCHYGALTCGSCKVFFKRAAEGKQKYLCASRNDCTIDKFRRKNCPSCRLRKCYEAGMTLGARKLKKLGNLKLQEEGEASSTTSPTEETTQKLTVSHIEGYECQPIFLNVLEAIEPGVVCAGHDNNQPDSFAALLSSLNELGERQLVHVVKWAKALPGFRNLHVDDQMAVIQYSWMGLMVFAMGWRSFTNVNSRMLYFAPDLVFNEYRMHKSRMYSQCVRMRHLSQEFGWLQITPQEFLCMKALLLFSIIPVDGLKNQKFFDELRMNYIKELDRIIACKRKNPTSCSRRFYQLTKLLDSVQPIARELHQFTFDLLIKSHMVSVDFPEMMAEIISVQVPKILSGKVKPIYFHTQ
Put plainly: Screen of 1040 FDA-approved drugs and natural products for AR antagonists (MMTV-luciferase transcription assay and C-AR-Y FRET conformation assays). The format is cell-based. The conditions noted are these: test compounds at 10 μM, 10 nM DHT, 24 hours; validated by dose-response. How it is done: A library assembled by the NINDS was screened. The library consisted of 1040 FDA-approved drugs and natural products. A basic strategy to select and compare compounds from each of the primary screens was established (FIG. 1).
The transcription assay was conducted by transfecting 10 cm plates of HEK293 cells with plasmids encoding MMTV-luciferase, SV40-renilla luciferase, and native AR. […] FRET is fluorescence resonance energy transfer between cyan and yellow fluorescent protein derivatives (CFP, YFP) that are fused to the amino and carboxyl termini of the human androgen receptor. When ligand activates the receptor, a conformational change takes place that brings the CFP and YFP into close proximity, thereby allowing FRET to occur. This spectroscopic change is detected using a fluorescence plate reader.
For the transcription assay, transfected cells were pooled before being plated into 96-well dishes with the test compounds at 10 μM. […] Cell and compound transfers were accomplished with a liquid handling robot. Cells were cultured for 24 hours in the presence of 10 nM DHT and the test compounds. After 24 hours, cells were either lysed by freeze-thaw (transcription assay), or fixed in 4% paraformaldehyde for reading on the FPR (FRET assays). Each compound was tested in duplicate in the initial screen.
The compounds were sorted on the basis of anti-androgen effects. […] This eliminated situations in which one test gave a strong response, and the replicate had none. […] For the FRET assays, toxic compounds were easily detected because of their effect on raw CFP and YFP signal, and compounds that reduced this signal below two standard deviations were eliminated.
The top 50 compounds identified in each primary assay were then tested in the other two assays.

A further data set concerns the target T2, AR (Homo sapiens, UniProt P10275, T878A).
T2 construct: that each express endogenous AR; endogenous in cells; host or cells: LNCaP
Put plainly: DHT titration against inhibitor, PSA-luciferase reporter in LNCaP cells (competitive vs non-competitive). The format is cell-based. As to conditions: moderate dose of inhibitor, DHT titrated.

For the next data set, the system named is HEK293 cells. Put plainly: Cell proliferation (DNA content, DAPI) in control HEK293 cells. The conditions noted are these: PP 100 nM, HH 100 nM, BiC 1 μM. In kind it is cell-based. From the text:
LN-AR cells were created by retroviral infection of a high-expressing AR vector into LNCaP cells, and proliferate independent of androgen in cell culture, unlike their parental line (Chen, C. D., et al., Molecular determinants of resistance to antiandrogen therapy. Nat Med, 2004. 10(1): p. 33-9). HEK293 cells were used as a control. Cells were transferred to charcoal-stripped media two days before they were split and plated in quadruplicate at a density of approximately 20,000 cells/well in 48-well plates. […] Media were changed every day, using a single preparation to ensure consistent compound concentrations. Proliferation was determined by measuring the DNA content of the cells in each well. Each day, the cells in four wells were fixed in 100% cold methanol, followed by staining for 5 min at RT with 0.2 ng/mL 4′,6-diamidino-2-phenylindole (DAPI) in PBS. The cells were washed once in PBS, then read on a fluorescence plate reader using 365/439 excitation/emission wavelengths. LAPC4 and LNCaP cells proliferated to a much greater degree in the presence of DHT, while LN-AR cells proliferated in the presence and absence of DHT.

The test system of another data set is dorsal prostate. Put plainly: Histology of mouse dorsal prostate after 5 weeks of treatment. The format is in vivo. As to conditions: FVB male mice, THP or BiC alone, or combination.
The next data set addresses T3, native androgen receptor (Homo sapiens, UniProt P10275).
T3 construct: that each express endogenous AR; endogenous in cells; host or cells: LAPC4
T3 sequence (P10275 1-920): T1 sequence (P10275 1-920)
In words: PSA-luciferase reporter with CMV-renilla control in LAPC4 cells (THP). The format is cell-based. The conditions noted are these: LAPC4, DHT and increasing amounts of compound. From the text: LAPC4 cells, a prostate cancer cell line that expresses native androgen receptor, were transfected with a PSA-luciferase reporter, and a CMV-renilla luciferase control.
(In general: A reporter such as luciferase makes a cellular process visible.)

Data set [2] deals with androgen-regulated genes in the prostate. Put plainly: Quantitative PCR of androgen-regulated genes in mouse prostate, normalized to RPL19. The conditions noted are these: mice. In kind it is in vivo. As to the method:
A cohort of mice were castrated as a positive control.
For quantitative PCR, RNA was isolated from mouse prostates and reverse-transcribed. The expression of several androgen-regulated genes, of which a subset is shown (FIG. 13), was determined by using QPCR and normalizing to the expression of the housekeeping gene RPL19.

Data set [3] concerns prostate. In words: Prostate wet weight in FVB male mice after 5 weeks of treatment. In kind it is in vivo.
Data set [4] concerns the target T4, AR with a mutation (T877A) (Homo sapiens, UniProt P10275, T878A).
T4 construct: that each express endogenous AR; endogenous in cells; host or cells: LNCaP
T4 sequence (P10275 1-920 T878A): T1 sequence (P10275 1-920) with T878A
Put plainly: PSA-luciferase reporter transcription assay in LNCaP cells. As to conditions: 3 nM DHT. The format is cell-based. How it is done: Cells were transfected with two reporter plasmids, a PSA-luciferase construct (androgen responsive), and an SV40-renilla luciferase construct as an internal control. The following day, the cells were split and drugs added in the presence of 3 nM DHT. Luciferase production was measured the following day (Dual luciferase assay kit, Promega).
Synergism can be defined as a combination index of less than one, using the non-exclusive assumption described by Chou et al. (Chou, T. C. and P. Talalay, Quantitative analysis of dose-effect relationships: the combined effects of multiple drugs or enzyme inhibitors. Adv Enzyme Regul, 1984. 22: p. 27-55).

T2 sequence (P10275 whole entry T878A): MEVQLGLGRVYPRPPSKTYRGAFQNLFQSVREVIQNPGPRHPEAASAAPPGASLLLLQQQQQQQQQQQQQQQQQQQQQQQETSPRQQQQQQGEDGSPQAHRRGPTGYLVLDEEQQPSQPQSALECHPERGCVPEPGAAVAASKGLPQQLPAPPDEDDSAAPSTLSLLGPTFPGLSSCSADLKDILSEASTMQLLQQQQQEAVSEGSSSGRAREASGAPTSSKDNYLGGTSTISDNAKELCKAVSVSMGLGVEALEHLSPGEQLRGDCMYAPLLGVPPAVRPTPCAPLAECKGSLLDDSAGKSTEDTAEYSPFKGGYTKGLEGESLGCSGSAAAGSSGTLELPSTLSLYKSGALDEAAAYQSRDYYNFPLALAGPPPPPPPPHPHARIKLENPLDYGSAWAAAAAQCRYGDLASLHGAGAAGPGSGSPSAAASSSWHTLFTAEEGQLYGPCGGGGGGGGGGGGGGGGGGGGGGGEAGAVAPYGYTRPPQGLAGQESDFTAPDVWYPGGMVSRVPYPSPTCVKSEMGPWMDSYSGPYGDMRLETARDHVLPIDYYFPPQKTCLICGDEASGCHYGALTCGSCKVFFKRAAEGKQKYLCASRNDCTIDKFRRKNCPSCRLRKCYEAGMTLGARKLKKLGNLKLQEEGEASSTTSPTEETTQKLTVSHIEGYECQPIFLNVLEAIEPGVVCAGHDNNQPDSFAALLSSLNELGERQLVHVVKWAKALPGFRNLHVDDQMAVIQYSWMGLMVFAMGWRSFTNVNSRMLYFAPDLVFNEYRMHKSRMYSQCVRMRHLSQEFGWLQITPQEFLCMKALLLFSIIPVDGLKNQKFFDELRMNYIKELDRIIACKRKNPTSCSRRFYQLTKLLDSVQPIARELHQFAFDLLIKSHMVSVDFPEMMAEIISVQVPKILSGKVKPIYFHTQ

Take `CC(O)(CS(=O)(=O)c1ccc(F)cc1)C(=O)Nc1ccc(C#N)c(C(F)(F)F)c1` (stereo not shown) [BiC, bicalutamide]: the “Reduction of prostate weight” value in the data set with prostate [1] was 35%.
As to `O=c1ccc2cc(O[C@@H]3O[C@H](CO)[C@@H](O)[C@H](O)[C@H]3O)c(O)cc2o1` [Esculin], the “Anti-androgen activity in screen” value at human androgen receptor is given as “previously unrecognized anti-androgen activity”.
Regarding `CC(C)(O)C(=O)Nc1ccc([N+](=O)[O-])c(C(F)(F)F)c1` [OH—F, hydroxy-flutamide, reference compound], the “Mode of antagonism on DHT titration” value at AR was “DHT overcame the inhibitory effect; also recorded: consistent with a competitive antagonist”. Further, the “Anti-androgen activity in screen” value at human androgen receptor was “top hits”.
In the case of `Cc1cc(/C=C/c2ccc3cc(N(C)C)ccc3[n+]2C)c(C)n1-c1ccccc1` [PP, 6-Dimethylamino-2-[2-(2,5-dimethyl-1-phenyl-1H-pyrrol-3-yl)-vinyl]-1-methyl-quinolinium, pamoate salt, reference compound], the Non-specific growth inhibition result in the data set with HEK293 cells was “Neither compound exhibited non-specific growth inhibition”.
Turning to `COc1cc2ccc(=O)oc2cc1O` [Scopoletin], the “Anti-androgen activity in screen” value at human androgen receptor is on record as “previously unrecognized anti-androgen activity”.
Take `Cc1cc(/C=C/C2CCc3cc(N(C)C)ccc3N2C)c(C)n1-c1ccccc1` (stereo not shown) [THP, {2-[2-(2,5-Dimethyl-1-phenyl-1H-pyrrol-3-yl)-vinyl]-1-methyl-1,2,3,4-tetrahydro-quinolin-6-yl}-dimethyl-amine]: the “Atrophy of the dorsal prostate by histological examination” value in the data set with dorsal prostate is given as “modest atrophy”. In addition, the “Inhibition of androgen receptor-mediated transcription (normalized luciferase activity)” value at native androgen receptor was “strong inhibition of androgen receptor-mediated transcription”. The results for the “Expression of androgen-regulated genes in the prostate (QPCR)” value in data set [2] (2 mg/kg THP) and in data set [2] (20 mg/kg THP) were “modest effects” and “significantly decreased the transcription of many androgen regulated genes”, respectively. In addition, in the data set on prostate [3] (20 mg/kg THP, 5 weeks), the “Appearance of the prostate” value is listed as “abnormal milky appearance of the prostate”. In addition, in the data set on prostate [3] (5 weeks daily M-F, 1 mg/kg PP, 100 mg/kg BiC, 20 mg/kg THP, or 2 mg/kg THP + 100 mg/kg BiC), the “Change in prostate wet weight” value was “did not reduce overall wet weight”.
With Harman, in [4], the half-maximal inhibitory concentration (IC50) turned out to be 380 nM.
